Results as given in the NIST ThermoML archive (doi:10.1016/j.tca.2018.07.026).
Numbers after ± are expanded uncertainties.

Tests used:
[1] = molar heat capacity at constant pressure; conditions: 101.33 kPa, Crystal, DSC
[2] = Crystal, Transpiration method

N#Cc1ccc2ccccc2c1 [2-naphthalenecarbonitrile]
Conditions | molar heat capacity at constant pressure, [1] [J/K/mol] | vapor or sublimation pressure, [2] [kPa]
313.8 K | 182.1 ± 37 | –
314.4 K | 182.8 ± 37 | –
314.9 K | 183.3 ± 37 | –
315.3 K | 183.7 ± 37 | –
315.5 K | – | 0.00091 ± 5e-05
315.8 K | 184.2 ± 37 | –
316.3 K | 184.6 ± 38 | –
316.8 K | 185 ± 38 | –
317.3 K | 185.3 ± 38 | –
317.8 K | 185.4 ± 38 | –
318.2 K | 185.5 ± 38 | –
318.4 K | – | 0.00122 ± 6e-05
318.7 K | 185.9 ± 38 | –
319.2 K | 186.1 ± 38 | –
319.6 K | 186.3 ± 38 | –
320.1 K | 186.6 ± 38 | –
320.5 K | 186.8 ± 38 | 0.00152 ± 8e-05
320.9 K | 187.1 ± 38 | –
321.4 K | 187.4 ± 38 | –
321.8 K | 187.5 ± 38 | –
322.2 K | 187.8 ± 38 | –
322.4 K | – | 0.00195 ± 0.0001
322.7 K | 188.1 ± 38 | –
323.1 K | 188.4 ± 38 | –
323.5 K | 188.6 ± 38 | –
323.9 K | 188.9 ± 38 | –
324.4 K | 189.1 ± 38 | –
324.5 K | – | 0.00237 ± 0.00011
324.8 K | 189.5 ± 38 | –
325.2 K | 189.8 ± 38 | –
325.6 K | 190.2 ± 39 | –
326 K | 190.7 ± 39 | –
326.4 K | 191.2 ± 39 | 0.00284 ± 0.00014
326.8 K | 191.5 ± 39 | –
327.1 K | 191.8 ± 39 | –
328.2 K | – | 0.0035 ± 0.0002
331.3 K | – | 0.00463 ± 0.00022
333.2 K | – | 0.00579 ± 0.00029
334.2 K | – | 0.00641 ± 0.00032

O=C(O)c1ccccc1 [benzoic acid]
[1]
Conditions | molar heat capacity at constant pressure [J/K/mol]
318.8 K | 122.9 ± 25
319.2 K | 127.1 ± 26
319.7 K | 130.8 ± 27
320.1 K | 134.3 ± 27
320.6 K | 137.7 ± 28
321 K | 140.7 ± 29
321.4 K | 143.4 ± 29
321.9 K | 146.1 ± 30
322.3 K | 148.4 ± 30
322.7 K | 150.5 ± 31
323.1 K | 152.4 ± 31
323.5 K | 154.1 ± 31
324 K | 155.6 ± 32
324.4 K | 157 ± 32
324.8 K | 158.3 ± 32
325.2 K | 159.5 ± 32
325.6 K | 160.4 ± 33
326 K | 161.3 ± 33
326.4 K | 162 ± 33
326.8 K | 162.7 ± 33
327.2 K | 163.4 ± 33
327.6 K | 163.9 ± 33
328 K | 164.3 ± 33
328.3 K | 164.8 ± 34
328.7 K | 165.1 ± 34
329.1 K | 165.3 ± 34
329.5 K | 165.6 ± 34
329.9 K | 165.7 ± 34
330.3 K | 165.9 ± 34
330.6 K | 166 ± 34
331 K | 166.3 ± 34
331.4 K | 166.3 ± 34
331.8 K | 166.4 ± 34
332.1 K | 166.4 ± 34
332.5 K | 166.4 ± 34
332.9 K | 166.5 ± 34
333.3 K | 166.5 ± 34
333.6 K | 166.5 ± 34
334 K | 166.6 ± 34
334.4 K | 166.6 ± 34
334.8 K | 166.5 ± 34
335.1 K | 166.6 ± 34
335.5 K | 166.7 ± 34
335.9 K | 166.7 ± 34
336.2 K | 166.7 ± 34
336.6 K | 166.7 ± 34
337 K | 166.7 ± 34
337.3 K | 166.7 ± 34
337.7 K | 166.9 ± 34
338.1 K | 166.9 ± 34
338.5 K | 167 ± 34
338.8 K | 167.1 ± 34
339.2 K | 167.2 ± 34
339.6 K | 167.3 ± 34
339.9 K | 167.4 ± 34
340.3 K | 167.5 ± 34
340.7 K | 167.6 ± 34
341 K | 167.7 ± 34
341.4 K | 167.8 ± 34
341.8 K | 167.9 ± 34
342 K | 168 ± 34

c1ccc2ccccc2c1 [naphthalene]
[2]
Conditions | vapor or sublimation pressure [kPa]
288.2 K | 0.00418 ± 0.00021
290.7 K | 0.00548 ± 0.00028
293.2 K | 0.00698 ± 0.00035
298.2 K | 0.01114 ± 0.00054
303.2 K | 0.01811 ± 0.00088
308 K | 0.02903 ± 0.0014
313.1 K | 0.04408 ± 0.0021
318.2 K | 0.0671 ± 0.0031
323.1 K | 0.102 ± 0.0048
328.1 K | 0.1538 ± 0.007
330.5 K | 0.1867 ± 0.0086
333 K | 0.2235 ± 0.01
